Data published in PMC10458514, “Structure–Activity Relationship Studies on 6-Chloro-1-phenylbenzazepines Leads to the Identification of a New Dopamine D1 Receptor Antagonist” (Molecules, 2023).
“And” between values parts separate entries of the source, which are not always exact repeats. Equal values may be shown once. Read-outs that look alike come from different tables or passages of the source.

Experiments:
[1] = molecular target: T1, D1R (dopamine D1 receptor) (Homo sapiens, UniProt P21728); settings: for Selectivity D5/D1: ratio of Ki D5R to Ki D1R
T1 sequence (P21728 whole entry): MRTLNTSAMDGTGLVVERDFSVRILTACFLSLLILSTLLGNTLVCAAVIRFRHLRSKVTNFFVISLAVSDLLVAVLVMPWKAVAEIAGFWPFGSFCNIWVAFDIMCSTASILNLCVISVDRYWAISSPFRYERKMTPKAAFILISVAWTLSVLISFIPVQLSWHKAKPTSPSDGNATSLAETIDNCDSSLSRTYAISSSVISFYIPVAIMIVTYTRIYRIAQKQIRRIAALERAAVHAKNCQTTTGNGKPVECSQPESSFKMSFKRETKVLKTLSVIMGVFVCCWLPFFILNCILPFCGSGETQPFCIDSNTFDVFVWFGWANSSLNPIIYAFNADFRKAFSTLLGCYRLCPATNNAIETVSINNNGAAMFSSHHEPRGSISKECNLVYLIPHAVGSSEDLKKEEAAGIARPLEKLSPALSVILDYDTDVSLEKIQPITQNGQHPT

[2] = molecular target: T1, D1R (dopamine D1 receptor); experiment: biochemical; settings: [3H]SCH23390 radioligand, triplicate, na = not active (<50% inhibition in a primary assay when tested at 10 µM)
[3] = molecular target: T2, D5R (dopamine D5 receptor) (Homo sapiens, UniProt P21918); experiment: biochemical; settings: [3H]SCH23390 radioligand, triplicate, na = not active (<50% inhibition in a primary assay when tested at 10 µM)
T2 sequence (P21918 whole entry): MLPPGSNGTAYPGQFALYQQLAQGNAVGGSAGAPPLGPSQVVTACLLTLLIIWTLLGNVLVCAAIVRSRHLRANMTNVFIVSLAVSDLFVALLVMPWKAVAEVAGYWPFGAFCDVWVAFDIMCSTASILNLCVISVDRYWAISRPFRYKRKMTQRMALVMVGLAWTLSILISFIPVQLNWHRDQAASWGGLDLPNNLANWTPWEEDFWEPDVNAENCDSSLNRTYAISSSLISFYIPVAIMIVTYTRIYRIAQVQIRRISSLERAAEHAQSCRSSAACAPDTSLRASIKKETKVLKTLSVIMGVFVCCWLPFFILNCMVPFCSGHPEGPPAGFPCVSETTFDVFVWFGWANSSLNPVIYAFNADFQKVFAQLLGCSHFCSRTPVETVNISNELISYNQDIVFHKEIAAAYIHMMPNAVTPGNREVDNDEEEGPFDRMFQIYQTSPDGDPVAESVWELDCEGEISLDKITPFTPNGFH

D5R = settings: cited from earlier work
D1R [4] = molecular target: T3, D1R (Homo sapiens, UniProt P21728); settings: cited from earlier work
T3 construct: Eurofins Discover X
T3 sequence (P21728 whole entry): as the sequence (P21728 whole entry) above

[5] = molecular target: T2, D5R (dopamine D5 receptor); settings: read-out: Ki D5R; [3H]SCH23390 radioligand; triplicate; na = not active (<50% inhibition in a primary assay when tested at 10 µM)
D1R [6] = molecular target: T3, D1R; experiment: D1R cAMP functional assay, antagonist format (Eurofins DiscoverX HitHunter); assay type: cell-based; settings: antagonist mode; for Max Response, antagonist format: agonist challenge at EC80, in % (unit assumed)
Experimental: (§1) In the agonist format, cells were first incubated with sample to induce a response. Then, the media was aspirated from the cells and replaced with 15 μL 2:1 HBSS/10 mM Hepes: cAMP XS + Ab reagent. Sample stocks were diluted to generate 4X sample in assay buffer. […] The final assay concentration used was 1%. In antagonist mode, the cells were pre-incubated with a sample followed by agonist challenge at the EC80 concentration. The media was aspirated from cells and replaced with 10 μL 2:1 HBSS/10 mM Hepes: cAMP XS + Ab reagent. […] For agonist and antagonist assays, signal detection was performed as follows. […] This was followed by incubation with 20 μL cAMP XS + EA reagent for 3 h at room temperature. The microplates were read following signal generation with a PerkinElmer Envision™ instrument for chemiluminescent signal detection.

D1R [7] = molecular target: T3, D1R; experiment: D1R cAMP functional assay, agonist format (Eurofins DiscoverX HitHunter); assay type: cell-based; settings: agonist mode
Experimental: as §1

[8] = [3H]SCH23390 radioligand, triplicate, na = not active (<50% inhibition in a primary assay when tested at 10 µM)

melting point [°C] | Ki [2] | Compound | further results
151.3 to 152.7 |  | COc1ccc(C2CNCCc3c2ccc(OC)c3Cl)cc1 (centres unmarked) [Compound 10c, 6-chloro-7-methoxy-1-(4-methoxyphenyl)-2,3,4,5-tetrahydro-1H-benzo[d]azepine] | 
156.2 to 157.9 | 634 ± 12.5 nM | CCCC(=O)Nc1cc2c(c(Cl)c1O)CCN(C)CC2c1cccc(C)c1 (centres unmarked) [Compound 19b, N-(9-chloro-8-hydroxy-3-methyl-5-(m-tolyl)-2,3,4,5-tetrahydro-1H-benzo[d]azepin-7-yl)butyramide] | Selectivity D5/D1 [1]: 4.7; Ki [3]: 2960 ± 29.6 nM
 |  | C=CCN1CCc2c(cc(O)c(O)c2Cl)C(c2cccc(C)c2)C1 (centres unmarked) [SKF 83822] | Ki (D5R): 0.3 nM; Ki (D1R [4]): 0.2 nM
148.7 to 150.1 | 1970 ± 41.4 nM | CCCC(=O)Nc1cc2c(c(Cl)c1O)CCN(C)CC2c1ccccc1 (centres unmarked) [Compound 19a, N-(9-chloro-8-hydroxy-3-methyl-5-phenyl-2,3,4,5-tetrahydro-1H-benzo[d]azepin-7-yl)butyramide] | 
161.4 to 163.1 | 1500 ± 18.9 nM | C=CC(=O)Nc1cc2c(c(Cl)c1O)CCN(C)CC2c1ccccc1 (centres unmarked) [Compound 21a, N-(9-chloro-8-hydroxy-3-methyl-5-phenyl-2,3,4,5-tetrahydro-1H-benzo[d]azepin-7-yl)acrylamide] | 
180.4 to 181.8 |  | COc1ccc2c(c1Cl)CCNCC2c1cccc(C)c1 (centres unmarked) [Compound 10b, 6-chloro-7-methoxy-1-(m-tolyl)-2,3,4,5-tetrahydro-1H-benzo[d]azepine] | 
155.4 to 157.1 |  | COc1ccc(C2CN(C)CCc3c2ccc(OC)c3Cl)cc1 (centres unmarked) [Compound 13c, 6-chloro-7-methoxy-1-(4-methoxyphenyl)-3-methyl-2,3,4,5-tetrahydro-1H-benzo[d]azepine] | 
 | 102 ± 5.2 nM | C=CCN1CCc2c(ccc(O)c2Cl)C(c2ccccc2)C1 (centres unmarked) [Compound 14a] | Selectivity D5/D1 [1]: 2.9; Ki [3]: 297 ± 19.3 nM
155.4 to 157.1 |  | C=CCN1CCc2c(ccc(OC)c2Cl)C(c2ccc(OC)cc2)C1 (centres unmarked) [Compound 12c, 3-allyl-6-chloro-7-methoxy-1-(4-methoxyphenyl)-2,3,4,5-tetrahydro-1H-benzo[d]azepine] | 
122.3 to 124.2 |  | Cc1cccc(C2CNCCc3c2ccc(O)c3Cl)c1 (centres unmarked) [Compound 11b, 6-chloro-1-(m-tolyl)-2,3,4,5-tetrahydro-1H-benzo[d]azepin-7-ol] | Ki D1R [1, 8]: no affinity
142.6 to 144 | 78 nM and 77.9 nM | Cc1cccc(C2CN(C)CCc3c2ccc(O)c3Cl)c1 (centres unmarked) [Compound 15b, 6-chloro-3-methyl-1-(m-tolyl)-2,3,4,5-tetrahydro-1H-benzo[d]azepin-7-ol] | Selectivity D5/D1 [1]: 2.1; Ki [3]: 165 ± 4.9 nM
154.4 to 156.2 |  | CC(=O)Nc1cc2c(c(Cl)c1O)CCN(C)CC2c1ccccc1 (centres unmarked) [Compound 18a, N-(9-chloro-8-hydroxy-3-methyl-5-phenyl-2,3,4,5-tetrahydro-1H-benzo[d]azepin-7-yl)acetamide] | 
210.4 to 212.6 | 4350 nM | Cc1cccc(C2CN(C)CCc3c2cc([N+](=O)[O-])c(O)c3Cl)c1 (centres unmarked) [Compound 16b, 6-chloro-3-methyl-8-nitro-1-(m-tolyl)-2,3,4,5-tetrahydro-1H-benzo[d]azepin-7-ol] | 
198.7 to 200 |  | CN1CCc2c(cc([N+](=O)[O-])c(O)c2Cl)C(c2ccccc2)C1 (centres unmarked) [Compound 16a, 6-chloro-3-methyl-8-nitro-1-phenyl-2,3,4,5-tetrahydro-1H-benzo[d]azepin-7-ol] | Ki D1R [1, 8]: no affinity
141 to 142.1 | 1762 ± 17.6 nM | CN1CCc2c(cc(NC(N)=O)c(O)c2Cl)C(c2ccccc2)C1 (centres unmarked) [Compound 23a, 1-(9-chloro-8-hydroxy-3-methyl-5-phenyl-2,3,4,5-tetrahydro-1H-benzo[d]azepin-7-yl)urea] | 
201.4 to 202.8 |  | O=[N+]([O-])c1cc2c(c(Cl)c1O)CCNCC2c1ccccc1 (centres unmarked) [Compound 24a, 6-chloro-8-nitro-1-phenyl-2,3,4,5-tetrahydro-1H-benzo[d]azepin-7-ol] | Ki D1R [1, 8]: no affinity
184.6 to 186.1 |  | Cc1cccc(C2CN(C)CCc3c2cc(NC(N)=O)c(O)c3Cl)c1 (centres unmarked) [Compound 23b, 1-(9-chloro-8-hydroxy-3-methyl-5-(m-tolyl)-2,3,4,5-tetrahydro-1H-benzo[d]azepin-7-yl)urea] | 

melting point [°C] | Ki [2] | Compound | further results
172.1 to 173.8 |  | C=CCN1CCc2c(ccc(OC)c2Cl)C(c2cccc(C)c2)C1 (centres unmarked) [Compound 12b, 3-allyl-6-chloro-7-methoxy-1-(m-tolyl)-2,3,4,5-tetrahydro-1H-benzo[d]azepine] | 
134.8 to 136 | 72 nM and 71.9 nM | Cc1cccc(C2CN(C)CCc3c2cc(N)c(O)c3Cl)c1 (centres unmarked) [Compound 17b, 8-amino-6-chloro-3-methyl-1-(m-tolyl)-2,3,4,5-tetrahydro-1H-benzo[d]azepin-7-ol] | Selectivity D5/D1 [1]: 2.0; Ki [3]: 146 ± 5.8 nM
156.4 to 158 |  | COc1ccc2c(c1Cl)CCNCC2c1ccccc1 (centres unmarked) [Compound 10a, 6-chloro-7-methoxy-1-phenyl-2,3,4,5-tetrahydro-1H-benzo[d]azepine] | 
144.6 to 145.9 | 2940 ± 36.2 nM | CC(C)C(=O)Nc1cc2c(c(Cl)c1O)CCN(C)CC2c1ccccc1 (centres unmarked) [Compound 20a, N-(9-chloro-8-hydroxy-3-methyl-5-phenyl-2,3,4,5-tetrahydro-1H-benzo[d]azepin-7-yl)isobutyramide] | 
132.5 to 134.1 |  | C=CCN1CCc2c(ccc(O)c2Cl)C(c2ccc(O)cc2)C1 (centres unmarked) [Compound 14d, 3-allyl-6-chloro-1-(4-hydroxyphenyl)-2,3,4,5-tetrahydro-1H-benzo[d]azepin-7-ol] | Ki D1R [1, 8]: no affinity
 |  | N-(9-chloro-8-hydroxy-3-methyl-5-phenyl-2,3,4,5-tetrahydro-1H-benzo[d]azepin-7-yl)methanesulfonamide [Compound 22] | Ki [5]: 166 ± 6.8 nM; Selectivity D5/D1 [1]: 1.5; Ki ([1]; read-out: Ki D1R, [3H]SCH23390 radioligand, triplicate, na = not active (<50% inhibition in a primary assay when tested at 10 µM)): 113 nM and 114 nM
 | 4980 ± 61.3 nM | C=CC(=O)Nc1cc2c(c(Cl)c1O)CCN(C)CC2c1cccc(C)c1 (centres unmarked) [Compound 21b] | 
 |  | CN1CCc2cc(Cl)c(O)cc2[C@H]2c3ccccc3CC[C@@H]21 [SCH 39166, reference compound] | Max Response, antagonist format (D1R [6]): 102.24
 | 161 nM | CN1CCc2c(ccc(O)c2Cl)C(c2ccc(O)cc2)C1 (centres unmarked) [Compound 15d] | Selectivity D5/D1 [1]: 2.6; Ki [3]: 413 ± 9.8 nM
135.8 to 136.9 |  | Oc1ccc(C2CNCCc3c2ccc(O)c3Cl)cc1 (centres unmarked) [Compound 11d, 6-chloro-1-(4-hydroxyphenyl)-2,3,4,5-tetrahydro-1H-benzo[d]azepin-7-ol] | Ki D1R [1, 8]: did not bind to D1R
151.6 to 152.8 | 1360 ± 14 nM | CC(=O)Nc1cc2c(c(Cl)c1O)CCN(C)CC2c1cccc(C)c1 (centres unmarked) [Compound 18b, N-(9-chloro-8-hydroxy-3-methyl-5-(m-tolyl)-2,3,4,5-tetrahydro-1H-benzo[d]azepin-7-yl)acetamide] | 
143.5 to 145.1 | 30 nM and 30.1 nM | CN1CCc2c(ccc(O)c2Cl)C(c2ccccc2)C1 (centres unmarked) [Compound 15a, 6-chloro-3-methyl-1-phenyl-2,3,4,5-tetrahydro-1H-benzo[d]azepin-7-ol] | Selectivity D5/D1 [1]: 6 and 6.2; Max Response, antagonist format (D1R [6]): 66.12; IC50 (D1R [6]; agonist challenge at EC80, read-out: RC50 (IC50), antagonist format): 130 nM; RC50 (EC50), agonist format (D1R [7]): No D1R agonistic activity; Max Response, agonist format (D1R [7]; in % (unit assumed)): 17.22; EC50 (D1R [7]; read-out: RC50 (EC50), agonist format): > 10000 nM; Ki [3]: 187 nM
174.5 to 176.1 |  | COc1ccc2c(c1Cl)CCN(C)CC2c1cccc(C)c1 (centres unmarked) [Compound 13b, 6-chloro-7-methoxy-3-methyl-1-(m-tolyl)-2,3,4,5-tetrahydro-1H-benzo[d]azepine] | 
137 to 138.9 | 210 nM | CN1CCc2c(cc(N)c(O)c2Cl)C(c2ccccc2)C1 (centres unmarked) [Compound 17a, 8-amino-6-chloro-3-methyl-1-phenyl-2,3,4,5-tetrahydro-1H-benzo[d]azepin-7-ol] | Selectivity D5/D1 [1]: 1.3; Ki [3]: 270 ± 8.4 nM
134.6 to 135.8 |  | Oc1ccc2c(c1Cl)CCNCC2c1ccccc1 (centres unmarked) [Compound 11a, 6-chloro-1-phenyl-2,3,4,5-tetrahydro-1H-benzo[d]azepin-7-ol] | Ki D1R [1, 8]: no D1R affinity; Ki [3]: 470 nM
151.3 to 152.7 | 281 nM | C=CCN1CCc2c(ccc(O)c2Cl)C(c2cccc(C)c2)C1 (centres unmarked) [Compound 14b, 3-allyl-6-chloro-1-(m-tolyl)-2,3,4,5-tetrahydro-1H-benzo[d]azepin-7-ol] | Selectivity D5/D1 [1]: 2.6; Ki [3]: 741 ± 12.5 nM

Compound | melting point [°C] | Ki [2] | further results
Cc1cccc(C2CNCCc3c2cc([N+](=O)[O-])c(O)c3Cl)c1 (centres unmarked) [Compound 24b, 6-chloro-8-nitro-1-(m-tolyl)-2,3,4,5-tetrahydro-1H-benzo[d]azepin-7-ol] | 188.9 to 191.2 | 38 nM and 38.1 nM | Selectivity D5/D1 [1]: 2.6; Ki [3]: 97.9 ± 3.6 nM
